From patent US8344017B2, “Anti-hepatitis C virus agents and anti-HIV agents” (Mitsubishi Corporation, priority 2003, dated 2013)
pIC50: −log10 of the molar value. Values after ≈ are worked out from the molar mass of the structure shown. Read-outs that look alike come from different tables or passages of the source.

Tests used:
[1] = biological target: HIV reverse transcriptase (Human immunodeficiency virus type 1 group M subtype B, UniProt P03366); experiment: HIV reverse transcriptase inhibitory activity (32P-dTTP incorporation); assay type: biochemical; conditions: 1 hour at 37° C., pH 8.3
Experimental: The experiment was performed as follows in 50 mM Tris-HCl buffer (pH 8.3); to 10 μL of a reaction solution which had been prepared so as to contain 30 mM NaCl, 10 mM MgCl, 2.5 mM DTT, 1.25 μg/mL poly(rA). oligo(dT) 12-18, 250 nM dTTP, ^32P-dTTP (800 μCi/mmol), 1 μl of a sample dissolved in DMSO, 1 μl of HIV reverse transcriptase (0.01 U/mL) were added, and the total volume was made up to 20 μl. After the solution was incubated for 1 hour at 37° C., 10 μl of the reaction solution was placed on a Whatman DE81 filter, which was washed three times with Na2HPO4, once with 70% ethanol and once with ethanol. The dried filter was placed in a vial, and the radioactivity was counted by the liquid scintillation measurement method, which was assigned to the HIV reverse transcriptase activity.

S. aureus 209P JC-1 = experiment: Antimicrobial activity, MIC; assay type: cell-based
Experimental: (§1) Each fullerene derivative or the like was dissolved in DMSO, then added to the culture medium of bacteria. Vancomycin is an antimicrobial agent used for drug resistant bacteria (Methicillin resistant strains, MRSA) which has been in trouble now. […] Among the regioisomers of the compound 2, 2t-2, 2t-3 and 2t-4, differences in the effects are observed in some degree depending on bacteria, however, there are no significant differences, and they have an antimicrobial activity substantially equivalent to that of vancomycin, and are also effective for MRSA. Furthermore, worthy of special mention is the fact that these fullerene derivatives and the like show an effective antimicrobial activity against also vancomycin-resistant bacteria (VRE). […] At present, vancomycin-resistant bacteria began to emerge, therefore, the compound 2 is expected to exert an effect on these.

E. faecalis W-73 = experiment: Antimicrobial activity, MIC; assay type: cell-based
Experimental: as §1

S. eidermidis ATCC 14990 = experiment: Antimicrobial activity, MIC; assay type: cell-based
Experimental: as §1

S. aureus M126 (MRSA) = experiment: Antimicrobial activity, MIC; assay type: cell-based
Experimental: as §1

E. faecium vanA (VRE) = experiment: Antimicrobial activity, MIC; assay type: cell-based
Experimental: as §1

[2] = tested on: E. faecalis NCTC 12201 (VRE); experiment: Antimicrobial activity, MIC; assay type: cell-based
Experimental: as §1

S. aureus M133 (MRSA) = experiment: Antimicrobial activity, MIC; assay type: cell-based
Experimental: as §1

E. hirae ATCC 8043 = experiment: Antimicrobial activity, MIC; assay type: cell-based
Experimental: as §1

[3] = biological target: T1, RNA polymerase of hepatitis C virus (Hepatitis C virus genotype 1a, UniProt P27958); experiment: RNA polymerase activity of hepatitis C virus, inhibitory activity; assay type: biochemical
T1 construct: measuring RNA polymerase activity of hepatitis C virus
T1 sequence (P27958 2421-3011): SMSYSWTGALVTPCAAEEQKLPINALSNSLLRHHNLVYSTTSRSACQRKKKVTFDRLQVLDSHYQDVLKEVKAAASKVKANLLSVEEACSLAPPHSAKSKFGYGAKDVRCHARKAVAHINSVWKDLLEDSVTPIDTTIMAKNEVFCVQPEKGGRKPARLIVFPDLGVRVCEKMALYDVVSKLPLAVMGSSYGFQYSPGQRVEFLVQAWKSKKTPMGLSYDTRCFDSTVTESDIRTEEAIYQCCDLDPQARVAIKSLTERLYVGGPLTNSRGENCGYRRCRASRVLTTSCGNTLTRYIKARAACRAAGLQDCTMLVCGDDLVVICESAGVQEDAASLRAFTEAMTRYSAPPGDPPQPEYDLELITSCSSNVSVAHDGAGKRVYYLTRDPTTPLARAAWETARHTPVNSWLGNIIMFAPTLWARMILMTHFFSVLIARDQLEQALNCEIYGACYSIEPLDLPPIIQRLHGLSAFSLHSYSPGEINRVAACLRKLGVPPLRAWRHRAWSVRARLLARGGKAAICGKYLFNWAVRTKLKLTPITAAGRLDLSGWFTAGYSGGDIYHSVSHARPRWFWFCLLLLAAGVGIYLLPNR
Description: (1) By using an experimental system for measuring RNA polymerase activity of hepatitis C virus (D. Dhanak et al., J. Biol. Chem., 277, 38322-[…] (2002)), its inhibitory activity was examined.
With regard to the foregoing compound 2, major regioisomers were separated and purified, however, with regard to others, bioactivities were investigated using mixtures.

Compound: CN1CC23c4c5c6c7c8c9c(c%10c%11c2c2c4c4c%12c5c5c6c6c8c8c%13c9c9c%10c%10c%11c%11c2c2c4c4c%12c%12c5c5c6c8c6c8c%13c9c9c%10c%10c%11c2c2c4c4c%12c5c6c5c8c9c%10c2c45)C73C1c1ccc[n+](C)c1 (stereo not shown) [compound 12]
- pIC50 [1]: 5.28

Compound: C60-bis(N,N-dimethyl-2-hexylpyyrolidinium iodido) [compound 4]
- pIC50 [1]: 6.10
- MIC (S. aureus 209P JC-1; S. aureus 209P JC-1): 6250 µg/mL
- MIC (E. faecalis W-73): 50000 µg/mL
- MIC (S. eidermidis ATCC 14990; S. eidermidis ATCC 14990): 12500 µg/mL
- MIC (S. aureus M126 (MRSA); S. aureus M126 (MRSA)): 12500 µg/mL
- MIC (E. faecium vanA (VRE)): 12500 µg/mL
- MIC [2]: 25000 µg/mL
- MIC (S. aureus M133 (MRSA); S. aureus M133 (MRSA)): 12500 µg/mL
- MIC (E. hirae ATCC 8043; E. hirae ATCC 8043): 25000 µg/mL

Compound: C[N+]1(C)CC23c4c5c6c7c8c9c(c%10c%11c2c2c4c4c%12c5c5c6c6c8c8c%13c9c9c%10c%10c%11c%11c2c2c4c4c%12c%12c5c5c6c8c6c8c%13c9c9c%10c%10c%11c2c2c4c4c%12c5c6c5c8c9c%10c2c45)C73C1 (stereo not shown) [compound 9]
- pIC50 [1]: 5.80

Compound: O=C(O)CN1C(C(=O)O)C23c4c5c6c7c8c9c(c%10c%11c2c2c4c4c%12c5c5c6c6c8c8c%13c9c9c%10c%10c%11c%11c2c2c4c4c%12c%12c5c5c6c8c6c8c%13c9c9c%10c%10c%11c2c2c4c4c%12c5c6c5c8c9c%10c2c45)C73C1C(=O)O (stereo not shown) [compound 8]
- pIC50 [1]: 7.54
- pIC50 [3]: 5.70

Compound: O=C(O)CN1CC23c4c5c6c7c8c9c(c%10c%11c2c2c4c4c%12c5c5c6c6c8c8c%13c9c9c%10c%10c%11c%11c2c2c4c4c%12c%12c5c5c6c8c6c8c%13c9c9c%10c%10c%11c2c2c4c4c%12c5c6c5c8c9c%10c2c45)C73C1C(=O)O (stereo not shown) [compound 10]
- pIC50 [1]: 6.00

Compound: CN[C@H](CC(C)C)C(=O)N[C@H]1C(=O)N[C@@H](CC(N)=O)C(=O)N[C@H]2C(=O)N[C@H]3C(=O)N[C@H](C(=O)N[C@H](C(=O)O)c4cc(O)cc(O)c4-c4cc3ccc4O)[C@H](O)c3ccc(c(Cl)c3)Oc3cc2cc(c3O[C@@H]2O[C@H](CO)[C@@H](O)[C@H](O)[C@H]2O[C@H]2C[C@](C)(N)[C@H](O)[C@H](C)O2)Oc2ccc(cc2Cl)[C@H]1O [VCM, vancomycin, reference compound]
- MIC (S. aureus 209P JC-1; Staphylococcus aureus, 209P): 1560 µg/mL (≈ 1080 µM)
- MIC (S. eidermidis ATCC 14990): 3120 µg/mL (≈ 2150 µM)
- MIC (S. aureus M126 (MRSA); Staphylococcus aureus, MRSA): 1560 µg/mL (≈ 1080 µM)
- MIC (S. aureus M133 (MRSA); Staphylococcus aureus, MRSA): 1560 µg/mL (≈ 1080 µM)
- MIC (E. hirae ATCC 8043; Enterococcus hirae, ATCC8043): 3120 µg/mL (≈ 2150 µM)
